In brackets after ≈: the same amount, converted by molar mass. Where two headings read alike, the source gives them in different places.
Assays:
Type in all cases: cell-based
S. aureus MP-549 msrA = test: microbe, parasite or virus in culture
Summary of the method: (§1)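 Inoculum for broth microdilution was 5×10^5 CFU/mL final, prepared from overnight 35° C blood-agar subcultures (separate handling for streptococcal and anaerobic strains); MICs read by CLSI broth microdilution or agar dilution.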

[1] = system: broad panel of different clinical isolates; test: microbe, parasite or virus in culture
Summary of the method: as §1

E. coli armA = test: microbe, parasite or virus in culture; conditions: Escherichia coli, E. coli HAV#056; Clinical, armA
Summary of the method: as §1

S. aureus BAA 977 iErmA = test: microbe, parasite or virus in culture; conditions: Staphylococcus aureus, BAA-977 / MRSA
Summary of the method: as §1

E. coli ΔTolC = test: microbe, parasite or virus in culture; conditions: Escherichia coli, E. coli HAV#038; ΔTolC
Summary of the method: as §1

S. aureus MMX 3035 cErmA = test: MIC (broth microdilution or agar dilution, CLSI); conditions: Staphylococcus aureus, MMX3035CERMA; S. aureus HAV#031, MMX 3035; cErmA; read-out: MIC
Summary of the method: as §1

[2] = system: E. faecalis MMX 847; cErmB; test: MIC (broth microdilution or agar dilution, CLSI); conditions: Enterococcus faecalis; E. faecalis HAV#036, MMX 847; mac-resistant, cErmB; read-out: MIC
Summary of the method: as §1

[3] = system: S. pneumoniae MMX 3031 cMefA; test: MIC (broth microdilution or agar dilution, CLSI); conditions: Streptococcus pneumoniae, MMX3031CMEFA, S. pneumoniae HAV#034; MMX 3031, cMefA; read-out: MIC
Summary of the method: as §1

H. influenzae ATCC 49247 = test: MIC (broth microdilution or agar dilution, CLSI)
Summary of the method: as §1

S. pneumoniae ATCC 49619 = test: MIC (broth microdilution or agar dilution, CLSI); conditions: Streptococcus pneumoniae, ATCC49619, S. pneumoniae HAV#003, ATCC 49619; read-out: MIC
Summary of the method: as §1

E. coli LptD = test: MIC (broth microdilution or agar dilution, CLSI); conditions: Escherichia coli, E. coli HAV#040; LptD; read-out: MIC
Summary of the method: as §1

[4] = system: S. aureus ATCC BAA-1707 (MRSA); test: MIC (broth microdilution or agar dilution, CLSI); conditions: Staphylococcus aureus; S. aureus HAV#016, ATCC BAA-1707; MRSA; read-out: MIC
Summary of the method: as §1

S. aureus ATCC 29213 = test: MIC (broth microdilution or agar dilution, CLSI)
Summary of the method: as §1

K. pneumoniae ATCC 10031 = test: MIC (broth microdilution or agar dilution, CLSI)
Summary of the method: as §1

S. aureus hVISA = test: MIC (broth microdilution or agar dilution, CLSI); conditions: Staphylococcus aureus; S. aureus HAV#204, hVISA; read-out: MIC
Summary of the method: as §1

S. pyogenes ATCC 19615 = test: MIC (broth microdilution or agar dilution, CLSI)
Summary of the method: as §1

[5] = system: S. pneumoniae MMX 3028 cErmB; test: MIC (broth microdilution or agar dilution, CLSI); conditions: Streptococcus pneumoniae, MMX3028CERMB; S. pneumoniae HAV#033; MMX 3028, cErmB; read-out: MIC
Summary of the method: as §1

A. baumannii ATCC 19606 = test: MIC (broth microdilution or agar dilution, CLSI); conditions: Acinetobacter baumannii, ATCC19606; A. baumanii HAV#010, ATCC 19606; read-out: MIC
Summary of the method: as §1

E. faecalis ATCC 29212 = test: MIC (broth microdilution or agar dilution, CLSI)
Summary of the method: as §1

S. pneumoniae ATCC 6303 = test: MIC (broth microdilution or agar dilution, CLSI); conditions: Streptococcus pneumoniae, ATCC6303; S. pneumoniae HAV#351, ATCC 6303; read-out: MIC
Summary of the method: as §1

[6] = system: S. pyogenes MMX 946; cErmB; test: MIC (broth microdilution or agar dilution, CLSI); conditions: Streptococcus pyogenes; S. pyogenes HAV#035, MMX 946; cErmB, mac-resistant; read-out: MIC
Summary of the method: as §1

E. coli ATCC 25922 = test: MIC (broth microdilution or agar dilution, CLSI)
Summary of the method: as §1

K. oxytoca Clinical = test: MIC (broth microdilution or agar dilution, CLSI); conditions: Klebsiella oxytoca; K. oxytoca HAV#450; Clinical; read-out: MIC
Summary of the method: as §1

E. coli MP-9 ΔTolC = test: MIC (broth microdilution or agar dilution, CLSI); conditions: E. coli MP-9 ΔTolC
Summary of the method: as §1

[7] = system: E. coli MP-74 LptD mutant; test: MIC (broth microdilution or agar dilution, CLSI); conditions: E. coli MP-74 LptD mutant
Summary of the method: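 Triplicate CLSI determinations by broth or agar dilution, compound at 128-0.06 μg/mL in 2.5% DMSO; special handling for anaerobes. Broth microdilution used 5×10^5 CFU/mL inocula in cation-adjusted Mueller-Hinton broth.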

For `CC[C@H]1OC(=O)[C@H](C)[C@@H](O[C@H]2C[C@@](C)(OC)[C@@H](O)[C@H](C)O2)[C@H](C)[C@@H](O[C@@H]2O[C@H](C)C[C@H](N(C)C)[C@H]2O)[C@](C)(O)C[C@@H](C)C(=O)[C@H](C)[C@@H](O)[C@]1(C)O` [Erythromycin], the MIC (S. aureus MP-549 msrA; Staphylococcus aureus, MP549MSRA, S. aureus HAV#032, MP-549, MSR(A)) was 64 µg/mL (≈ 87.2 µM), the MIC ([1]; Enterococcus faecalis, VRE, E. faecalis HAV#251, Clinical VRE) was > 64 µg/mL and the MIC ([1]; Escherichia coli, E. coli HAV#501, Clinical) was > 64 µg/mL. The MIC ([1]; Klebsiella pneumoniae, K. pneumoniae HAV#041, Clinical, KPC) was > 64 µg/mL, the MIC ([1]; Staphylococcus aureus, MRSA, S. aureus HAV#017, MRSA Col(Colindale, England)) was 0.5 µg/mL (≈ 0.681 µM) and the MIC ([1]; Staphylococcus aureus, S. aureus HAV#216, Clinical, cfr) was 32 µg/mL (≈ 43.6 µM). For the same molecule, the MIC ([1]; Staphylococcus aureus, S. aureus HAV#217, cfr) was 64 µg/mL (≈ 87.2 µM), the MIC ([1]; Staphylococcus aureus, VISA, S. aureus HAV#203, Clinical (VISA)) was > 64 µg/mL and the MIC ([1]; Staphylococcus epidermidis, S. epidermidis HAV# 275 Clinical, cfr) was 8 µg/mL (≈ 10.9 µM). For the same molecule, the MIC ([1]; Staphylococcus epidermidis, S. epidermidis HAV# 276, cfr) was > 128 µg/mL, the MIC (E. coli armA) was 32 µg/mL (≈ 43.6 µM) and the MIC (S. aureus BAA 977 iErmA) was > 64 µg/mL. For the same molecule, the MIC (E. coli ΔTolC) was 4 µg/mL (≈ 5.45 µM), the MIC (S. aureus MMX 3035 cErmA) was > 64 µg/mL and the MIC [2] was > 64 µg/mL. For the same molecule, the MIC [3] was 8 µg/mL (≈ 10.9 µM), the MIC (H. influenzae ATCC 49247; Haemophilus influenzae, ATCC49247, H. influenzae HAV#007, ATCC 49247, read-out: MIC) was 8 µg/mL (≈ 10.9 µM) and the MIC (S. pneumoniae ATCC 49619) was ≤ 0.06 µg/mL. The MIC (E. coli LptD) was 1 µg/mL (≈ 1.36 µM), the MIC [4] was 0.5 µg/mL (≈ 0.681 µM) and the MIC (S. aureus ATCC 29213; Staphylococcus aureus, ATCC29213, S. aureus HAV#001, ATCC 29213, MP-549, read-out: MIC) was 0.5 µg/mL (≈ 0.681 µM). The MIC (K. pneumoniae ATCC 10031; Klebsiella pneumoniae, ATCC10031, K. pneumoniae HAV#008, ATCC 10031, read-out: MIC) was 8 µg/mL (≈ 10.9 µM), the MIC (S. aureus hVISA) was > 64 µg/mL and the MIC (S. pyogenes ATCC 19615; Streptococcus pyogenes, ATCC19615, S. pyogenes HAV#004, ATCC 19615, read-out: MIC) was < 0.06 µg/mL. The MIC [5] was > 64 µg/mL, the MIC (A. baumannii ATCC 19606) was 64 µg/mL (≈ 87.2 µM) and the MIC (E. faecalis ATCC 29212; Enterococcus faecalis, ATCC29212, E. faecalis HAV#005, ATCC 29212, read-out: MIC) was 2 µg/mL (≈ 2.73 µM). For the same molecule, the MIC (S. pneumoniae ATCC 6303) was 0.5 µg/mL (≈ 0.681 µM), the MIC [6] was > 64 µg/mL and the MIC (E. coli ATCC 25922; Escherichia coli, ATCC25922, E. coli HAV#006, ATCC 25922, read-out: MIC) was 64 µg/mL (≈ 87.2 µM). The MIC (K. oxytoca Clinical) was > 64 µg/mL.

In the case of `CSC1O[C@H]([C@H](NC(=O)[C@H]2NC[C@@H]3C[C@H](C(C)C)CCO[C@H]32)[C@H](C)Cl)C(O)[C@@H](O)[C@H]1O` (stereo partly shown) [FSA-512078b], the MIC (S. aureus MP-549 msrA; S. aureus MP-549 msrA) is reported as 0.25 µg/mL (≈ 0.52 µM), the MIC (H. influenzae ATCC 49247; H. influenzae ATCC 49247) is reported as 32 µg/mL (≈ 66.5 µM) and the MIC (E. coli MP-9 ΔTolC) is reported as 4 µg/mL (≈ 8.32 µM). For the same molecule, the MIC (S. aureus ATCC 29213; S. aureus ATCC 29213) was 0.5 µg/mL (≈ 1.04 µM), the MIC (K. pneumoniae ATCC 10031; K. pneumoniae ATCC 10031) was 4 µg/mL (≈ 8.32 µM) and the MIC (S. pyogenes ATCC 19615; S. pyogenes ATCC 19615) was ≤0.12 µg/mL. The MIC (E. faecalis ATCC 29212; E. faecalis ATCC 29212) was 0.5 µg/mL (≈ 1.04 µM), the MIC (E. coli ATCC 25922; E. coli ATCC 25922) was 128 µg/mL (≈ 266 µM) and the MIC [7] was 16 µg/mL (≈ 33.3 µM).
